Data reported in patent US6355799B1, “Substituted benzene compounds, process for their preparation, and herbicidal and defoliant compositions containing them” (ISK Americas Incorporated, priority 1997, dated 2002).

Legend:
Type in all cases: in vivo
[1] = test system: field corn (Zea mays L., var. Dekalb 535, CORN); assay: Post-emerge test, crop safety; conditions: post-emerge; for phytotoxicity rating CORN (crop damage): 14 days after application, rating scale 0-100; for Post-emerge Herbicidal Activity CORN: crop damage rating 0-100 at 14 days after application
In short: (§1)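 Compounds in acetone were track-sprayed at 187 l/ha, 15–1000 g ai/ha, onto sandy loam pots. Pre-emerge seeds were sown one day before spraying, with surface watering afterwards. Post-emerge plants were at the 2–3 leaf stage and sprayed with 0.25% v/v non-ionic surfactant. Injury was rated 0–100 at 14 days.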

[2] = test system: upland rice (Oryza sp., var. Tebonnet, RICE); assay: Post-emerge test, crop safety; conditions: post-emerge; for phytotoxicity rating RICE (crop damage): 14 days after application, rating scale 0-100; for Post-emerge Herbicidal Activity RICE: crop damage rating 0-100 at 14 days after application
In short: as §1

[3] = test system: field corn (Zea mays L., var. Dekalb 535, CORN); assay: Pre-emerge test, crop safety
In short: (§2)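 Compounds in acetone were track-sprayed at 15-1000 g ai/ha (187 l/ha) on sandy loam pots: pre-emerge one day after seeding, post-emerge at 2-3 leaf stage with 0.25% v/v non-ionic surfactant. Phytotoxicity was rated 14 days later on a 0 (no damage) to 100 (complete death) scale.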

[4] = test system: upland rice (Oryza sp., var. Tebonnet, RICE); assay: Pre-emerge test, crop safety
In short: as §2

[5] = test system: johnsongrass (Sorghum halepense, SORHA); assay: Post-emerge test, greenhouse herbicide activity screening; conditions: post-emerge; for phytotoxicity rating SORHA: 14 days after application, rating scale 0-100; for Post-emerge Herbicidal Activity SORHA: phytotoxicity rating 0-100 at 14 days after application
In short: (§3)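 Fourteen days after spraying, crop and weed injury was graded visually from 0, no effect, to 100, every plant dead. Test substances were dissolved in acetone and applied at 15–1000 g ai/ha with a flat-fan nozzle. Application was either pre-emergence, one day after sowing, or post-emergence at the 2–3 leaf stage.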

[6] = test system: large crabgrass (Digitaria sanguinalis, DIGSA); assay: as above; conditions: post-emerge; for phytotoxicity rating DIGSA: 14 days after application, rating scale 0-100; for Post-emerge Herbicidal Activity DIGSA: phytotoxicity rating 0-100 at 14 days after application
In short: as §3

[7] = test system: redroot pigweed (Amaranthus retroflexus, AMARE); assay: as above; conditions: post-emerge; for phytotoxicity rating AMARE: 14 days after application; for Post-emerge Herbicidal Activity AMARE: phytotoxicity rating 0-100 at 14 days after application
In short: as §3

[8] = test system: ivyleaf morningglory (Ipomoea hederacea, IPOHE); assay: as above; conditions: post-emerge; for phytotoxicity rating IPOHE: 14 days after application, rating scale 0-100; for Post-emerge Herbicidal Activity IPOHE: phytotoxicity rating 0-100 at 14 days after application
In short: as §3

[9] = test system: velvetleaf (Abutilon theophrasti, ABUTH); assay: as above; conditions: post-emerge; for phytotoxicity rating ABUTH: 14 days after application, rating scale 0-100; for Post-emerge Herbicidal Activity ABUTH: phytotoxicity rating 0-100 at 14 days after application
In short: as §3

[10] = test system: green foxtail (Setaria viridis, SETVI); assay: as above; conditions: post-emerge; for phytotoxicity rating SETVI: 14 days after application, rating scale 0-100; for Post-emerge Herbicidal Activity SETVI: phytotoxicity rating 0-100 at 14 days after application
In short: as §3

[11] = test system: sicklepod (Cassia obtusifolia, CASOB); assay: as above; conditions: post-emerge; for phytotoxicity rating CASOB: 14 days after application, rating scale 0-100; for Post-emerge Herbicidal Activity CASOB: phytotoxicity rating 0-100 at 14 days after application
In short: as §3

[12] = test system: lambsquarters (Chenopodium album, CHEAL); assay: as above; conditions: post-emerge; for phytotoxicity rating CHEAL: 14 days after application, rating scale 0-100; for Post-emerge Herbicidal Activity CHEAL: phytotoxicity rating 0-100 at 14 days after application
In short: as §3

[13] = test system: barnyardgrass (Echinochloa crus-galli, ECHCG); assay: Pre-emerge test, greenhouse herbicide activity screening
In short: as §1

[14] = test system: johnsongrass (Sorghum halepense, SORHA); assay: as above
In short: as §1

[15] = test system: large crabgrass (Digitaria sanguinalis, DIGSA); assay: as above
In short: as §1

[16] = test system: ivyleaf morningglory (Ipomoea hederacea, IPOHE); assay: as above
In short: as §1

[17] = test system: velvetleaf (Abutilon theophrasti, ABUTH); assay: as above
In short: as §1

[18] = test system: green foxtail (Setaria viridis, SETVI); assay: as above
In short: as §1

[19] = test system: sicklepod (Cassia obtusifolia, CASOB); assay: as above
In short: as §1

[20] = test system: lambsquarters (Chenopodium album, CHEAL); assay: as above
In short: as §1

[21] = test system: redroot pigweed (Amaranthus retroflexus, AMARE); assay: as above
In short: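 Herbicidal damage is scored 0 (none) to 100 (complete plant death) two weeks after a simulated field spray. Rates span 15–1000 g ai/ha, delivered in acetone at 187 l/ha. For post-emergence treatments, plants have 2–3 leaves and the spray carries 0.25% v/v non-ionic surfactant.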

[22] = 63 g ai/ha, crop damage rating 0-100, 14 days after application
[23] = 250 g ai/ha, crop damage rating 0-100, 14 days after application
[24] = 63 g ai/ha, phytotoxicity rating 0-100, 14 days after application
[25] = 250 g ai/ha, phytotoxicity rating 0-100, 14 days after application
[26] = crop damage, pre-emerge, rate 63 g ai/ha, phytotoxicity rating 0-100 at 14 days after application
[27] = crop damage, pre-emerge, rate 250 g ai/ha, phytotoxicity rating 0-100 at 14 days after application
[28] = pre-emerge, rate 63 g ai/ha, phytotoxicity rating 0-100 at 14 days after application
[29] = pre-emerge, rate 250 g ai/ha, phytotoxicity rating 0-100 at 14 days after application

COc1c(Cl)cc(F)c(-n2c(=O)cc(C(F)(F)F)n(C)c2=O)c1NC(=O)Oc1c(C)cc(C)cc1C [4-25]
70: phytotoxicity rating AMARE ([7]; 63 g ai/ha, rating scale 0-100 (0 no damage, 100 complete death)) | phytotoxicity rating ABUTH ([9]; 63 g ai/ha)
20: phytotoxicity rating RICE (crop damage) ([2]; 250 g ai/ha) | phytotoxicity rating SETVI ([10]; 63 g ai/ha) | phytotoxicity rating CASOB ([11]; 63 g ai/ha) | Pre-emerge Herbicidal Activity CASOB [19, 25]
30: phytotoxicity rating SETVI ([10]; 250 g ai/ha) | phytotoxicity rating CASOB ([11]; 250 g ai/ha) | Pre-emerge Herbicidal Activity AMARE [21, 24]
75: phytotoxicity rating CHEAL ([12]; 63 g ai/ha)
0: phytotoxicity rating RICE (crop damage) ([2]; 63 g ai/ha) | Pre-emerge Herbicidal Activity CORN [3, 22] | Pre-emerge Herbicidal Activity CORN [3, 23] | Pre-emerge Herbicidal Activity RICE [4, 22] | Pre-emerge Herbicidal Activity RICE [4, 23] | phytotoxicity rating SORHA ([5]; 63 g ai/ha) | phytotoxicity rating DIGSA ([6]; 63 g ai/ha) | phytotoxicity rating DIGSA ([6]; 250 g ai/ha) | Pre-emerge Herbicidal Activity ECHCG [13, 24] | Pre-emerge Herbicidal Activity ECHCG [13, 25] | Pre-emerge Herbicidal Activity SORHA [14, 24] | Pre-emerge Herbicidal Activity SORHA [14, 25] | Pre-emerge Herbicidal Activity DIGSA [15, 24] | Pre-emerge Herbicidal Activity IPOHE [16, 24] | Pre-emerge Herbicidal Activity IPOHE [16, 25] | Pre-emerge Herbicidal Activity ABUTH [17, 24] | Pre-emerge Herbicidal Activity SETVI [18, 24] | Pre-emerge Herbicidal Activity CASOB [19, 24]
85: phytotoxicity rating CHEAL ([12]; 250 g ai/ha)
15: phytotoxicity rating CORN (crop damage) ([1]; 250 g ai/ha)
5: phytotoxicity rating CORN (crop damage) ([1]; 63 g ai/ha)
60: phytotoxicity rating IPOHE ([8]; 250 g ai/ha) | Pre-emerge Herbicidal Activity ABUTH [17, 25] | Pre-emerge Herbicidal Activity CHEAL [20, 24]
100: phytotoxicity rating AMARE ([7]; 250 g ai/ha, rating scale 0-100) | Pre-emerge Herbicidal Activity CHEAL [20, 25] | Pre-emerge Herbicidal Activity AMARE [21, 25]
50: Pre-emerge Herbicidal Activity SETVI [18, 25]
40: phytotoxicity rating IPOHE ([8]; 63 g ai/ha)
10: phytotoxicity rating SORHA ([5]; 250 g ai/ha) | Pre-emerge Herbicidal Activity DIGSA [15, 25]
95: phytotoxicity rating ABUTH ([9]; 250 g ai/ha)

COc1c(Cl)cc(F)c(N2C(=O)C3=C(CCCC3)C2=O)c1NC(=O)C=Cc1ccccc1 [8-31]
0: Pre-emerge Herbicidal Activity CORN [3, 26] | Pre-emerge Herbicidal Activity RICE [4, 26] | Pre-emerge Herbicidal Activity ECHCG [13, 28] | Pre-emerge Herbicidal Activity ECHCG [13, 29] | Pre-emerge Herbicidal Activity SORHA [14, 28] | Pre-emerge Herbicidal Activity DIGSA [15, 28] | Pre-emerge Herbicidal Activity IPOHE [16, 28] | Pre-emerge Herbicidal Activity CASOB [19, 28]
100: Post-emerge Herbicidal Activity AMARE ([7]; 63 g ai/ha) | Post-emerge Herbicidal Activity AMARE ([7]; 250 g ai/ha) | Post-emerge Herbicidal Activity IPOHE ([8]; 63 g ai/ha) | Post-emerge Herbicidal Activity IPOHE ([8]; 250 g ai/ha) | Post-emerge Herbicidal Activity ABUTH ([9]; 63 g ai/ha) | Post-emerge Herbicidal Activity ABUTH ([9]; 250 g ai/ha) | Post-emerge Herbicidal Activity CHEAL ([12]; 63 g ai/ha) | Post-emerge Herbicidal Activity CHEAL ([12]; 250 g ai/ha) | Pre-emerge Herbicidal Activity CHEAL [20, 28] | Pre-emerge Herbicidal Activity CHEAL [20, 29] | Pre-emerge Herbicidal Activity AMARE [21, 29]
45: Post-emerge Herbicidal Activity RICE ([2]; 63 g ai/ha)
30: Post-emerge Herbicidal Activity RICE ([2]; 250 g ai/ha) | Pre-emerge Herbicidal Activity RICE [4, 27] | Post-emerge Herbicidal Activity SORHA ([5]; 250 g ai/ha) | Post-emerge Herbicidal Activity DIGSA ([6]; 250 g ai/ha) | Pre-emerge Herbicidal Activity IPOHE [16, 29]
80: Post-emerge Herbicidal Activity CASOB ([11]; 250 g ai/ha)
95: Pre-emerge Herbicidal Activity ABUTH [17, 29]
60: Post-emerge Herbicidal Activity CASOB ([11]; 63 g ai/ha) | Pre-emerge Herbicidal Activity ABUTH [17, 28]
90: Pre-emerge Herbicidal Activity AMARE [21, 28]
10: Post-emerge Herbicidal Activity CORN ([1]; 63 g ai/ha) | Post-emerge Herbicidal Activity CORN ([1]; 250 g ai/ha) | Pre-emerge Herbicidal Activity CORN [3, 27] | Post-emerge Herbicidal Activity SORHA ([5]; 63 g ai/ha) | Post-emerge Herbicidal Activity DIGSA ([6]; 63 g ai/ha) | Pre-emerge Herbicidal Activity SORHA [14, 29] | Pre-emerge Herbicidal Activity DIGSA [15, 29] | Pre-emerge Herbicidal Activity SETVI [18, 28] | Pre-emerge Herbicidal Activity SETVI [18, 29]
20: Post-emerge Herbicidal Activity SETVI ([10]; 63 g ai/ha) | Post-emerge Herbicidal Activity SETVI ([10]; 250 g ai/ha) | Pre-emerge Herbicidal Activity CASOB [19, 29]
